Results published in patent US20220002272A1, “BISARYL LACTAMS AS NRF2 ACTIVATORS” (GLAXOSMITHKLINE INTELLECTUAL PROPERTY DEVELOPMENT LIMITED, priority 2016, published 2022).
Structures can show the parent of a compound that is named as a salt.

Tested on: NQ01 specific enzyme activity in BEAS-2B cells (marker for Nrf2 activation)
Assay: BEAS-2B NQ01 MTT Assay
Assay type: cell-based
Conditions: Homo sapiens; NQ01 specific activity induction in BEAS-2B cells, 48 hours incubation with compound
From the text: NAD(P)H:quinone oxidoreductase 1 (NQ01), also called DT diaphorase, is a homodimeric FAD-containing enzyme that catalyzes obligatory NAD(P)H-dependent two-electron reductions of quinones and protects cells against the toxic and neoplastic effects of free radicals and reactive oxygen species arising from one-electron reductions. The transcription of NQ01 is finely regulated by Nrf2, and thus NQ01 activity is a good marker for Nrf2 activation. On day one, frozen BEAS-2B cells (ATCC) are thawed in a water bath, counted, and re-suspended at a concentration of 250,000 cells/mL. Fifty microliters of cells are plated in 384 well black clear-bottomed plates. Plates are incubated at 37° C., 5% CO2 overnight. On day two, plates are centrifuged and 50 nL of compound or controls are added to the cells. Plates are then incubated at 37° C., 5% CO2 for 48 hours. On day four, medium is aspirated from the plate and crude cell lysates are made by adding 13 uL of 1× Cell Signaling Technologies lysis buffer with 1 Complete, Mini, EDTA-free Protease Inhibitor Tablet (Roche) for each 10 mL of lysis buffer. After lysis plates are incubated for 20 minutes at room temperature. Two microliters of lysate are removed for use in Cell Titer Glo assay (Promega) and MTT cocktail is prepared (Prochaska et. al. 1998) for measurement of NQ01 activity. Fifty microliters of MTT cocktail is added to each well, plate is centrifuged, and analyzed on an Envision plate reader (Perkin Elmer) using Absorbance 570 nm label for 30 minutes. Product formation is measured kinetically and the pEC50 of NQ01 specific activity induction is calculated by plotting the change in absorbance (Delta OD/min) versus the log of compound concentration followed by 3-parameter fitting.
pEC50 is the negative log of the EC50.
EC50s<1 nM (+++++), EC50s 10 nM-1 nM (++++), EC50s 10-100 nM (+++), EC50s 100 nM-1 μM (++), EC50s 1-10 μM (+).

| SMILES | EC50 [µM] |
| --- | --- |
| CCCN1CC(C)(C)CN(Cc2cc(C(CCc3cn(CC)nn3)C(C)(C)C(=O)O)ccc2Cl)CC1=O (stereo not shown) [Example 15, 3-(4-Chloro-3-((6,6-dimethyl-3-oxo-4-propyl-1,4-diazepan-1-yl)methyl)phenyl)-5-(1-ethyl-1H-1,2,3-triazol-4-yl)-2,2-dimethylpentanoic acid] | 0.01 to 0.1 |
| Cc1ccc([C@@H](c2ccc3c(nnn3C)c2C)C(C)(C)C(=O)O)cc1CN1CC(=O)N(C)CC(C)(C)C1 [Example 6, (S)-3-(1,4-Dimethyl-1H-benzo[d][1,2,3]triazol-5-yl)-2,2-dimethyl-3-(4-methyl-3-((4,6,6-trimethyl-3-oxo-1,4-diazepan-1-yl)methyl)phenyl)propanoic acid, 0.3Formic acid salt] | 0.001 to 0.01 |
| CCn1cc(COC(c2ccc(C)c(CN3CC(=O)N(C)CC(C)(C)C3)c2)C(C)(C)C(=O)O)nn1 (stereo not shown) [Example 14, 3-((1-Ethyl-1H-1,2,3-triazol-4-yl)methoxy)-2,2-dimethyl-3-(4-methyl-3-((4,6,6-trimethyl-3-oxo-1,4-diazepan-1-yl)methyl)phenyl)propanoic acid] | 0.1 to 1 |
| Cc1ccc([C@@H](c2ccc3c(nnn3C)c2C)C(C)(C)C(=O)O)cc1CN1CC(=O)N(C2CC2)CC(C)(C)C1 [Example 1] | 0.001 to 0.01 |
| Cc1c(C(c2ccc3c(c2)C(N2CC(=O)N(C)CC(C)(C)C2)CC3)C(C)(C)C(=O)O)ccc2c1nnn2C (stereo not shown) [Example 13, 3-(1,4-Dimethyl-1H-benzo[d][1,2,3]triazol-5-yl)-2,2-dimethyl-3-(3-(4,6,6-trimethyl-3-oxo-1,4-diazepan-1-yl)-2,3-dihydro-1H-inden-5-yl)propanoic acid] | 0.1 to 1 |
| Cc1ccc([C@@H](c2ccc3c(nnn3C)c2C)C(C)(C)C(=O)O)cc1CN1CCCN(C)C(=O)C1 [Example 3, (S)-3-(1,4-Dimethyl-1H-benzo[d][1,2,3]triazol-5-yl)-2,2-dimethyl-3-(4-methyl-3-((4-methyl-3-oxo-1,4-diazepan-1-yl)methyl)phenyl)propanoic acid] | 0.1 to 1 |
| Cc1c([C@H](c2ccc3c(c2)[C@@H](N2CC(=O)N(C)CC(C)(C)C2)CC3)C(C)(C)C(=O)O)ccc2c1nnn2C (relative stereo) [Example 11, rel-3S-(1,4-Dimethyl-1H-benzo[d][1,2,3]triazol-5-yl)-2,2-dimethyl-3-(rel-(S)-3-(4,6,6-trimethyl-3-oxo-1,4-diazepan-1-yl)-2,3-dihydro-1H-inden-5-yl)propanoic acid] | 0.001 to 0.01 |
| CCN1CC(C)(C)CN(Cc2cc([C@@H](c3ccc4c(nnn4C)c3C)C(C)(C)C(=O)O)ccc2C)CC1=O [Example 4] | 0.001 to 0.01 |
| Cc1ccc(C(c2ccc3c(nnn3C)c2C)C(C)(C)C(=O)O)cc1CN1CC(=O)N(C2CCC2)CC(C)(C)C1 (stereo not shown) [Example 8, 3-(3-((4-Cyclobutyl-6,6-dimethyl-3-oxo-1,4-diazepan-1-yl)methyl)-4-methylphenyl)-3-(1,4-dimethyl-1H-benzo[d][1,2,3]triazol-5-yl)-2,2-dimethylpropanoic acid] | 0.001 to 0.01 |
| CCn1cc(CCC(c2ccc(Cl)c(CN3CC(=O)N(C)CC(C)(C)C3)c2)C(C)(C)C(=O)O)nn1 (stereo not shown) [Example 16, 3-(4-Chloro-3-((4,6,6-trimethyl-3-oxo-1,4-diazepan-1-yl)methyl)phenyl)-5-(1-ethyl-1H-1,2,3-triazol-4-yl)-2,2-dimethylpentanoic acid] | < 0.001 |
| CCCN1CC(C)(C)CN(Cc2cc([C@@H](c3ccc4c(nnn4C)c3C)C(C)(C)C(=O)O)ccc2C)CC1=O [Example 2] | 0.001 to 0.01 |
| Cc1c(C(c2ccc3c(c2)C(N2CC(=O)N(C)CC(C)(C)C2)CC3)C(C)(C)C(=O)O)ccc2c1nnn2C (single isomer, unassigned) [Example 12] | 0.01 to 0.1 |
| Cc1ccc(C(c2ccc3c(nnn3C)c2C)C(C)(C)C(=O)O)cc1CN1CC(=O)N(CC2CC2)CC(C)(C)C1 (stereo not shown) [Example 9, 3-(3-((4-(Cyclopropylmethyl)-6,6-dimethyl-3-oxo-1,4-diazepan-1-yl)methyl)-4-methylphenyl)-3-(1,4-dimethyl-1H-benzo[d][1,2,3]triazol-5-yl)-2,2-dimethylpropanoic acid] | 0.01 to 0.1 |
| Cc1c([C@H](c2ccc3c(c2)[C@H](N2CC(=O)N(C)CC(C)(C)C2)CC3)C(C)(C)C(=O)O)ccc2c1nnn2C (relative stereo) [Example 10, rel-3S-(1,4-Dimethyl-1H-benzo[d][1,2,3]triazol-5-yl)-2,2-dimethyl-3-(rel-(R)-3-(4,6,6-trimethyl-3-oxo-1,4-diazepan-1-yl)-2,3-dihydro-1H-inden-5-yl)propanoic acid] | < 0.001 |
| CCC1CN(Cc2cc(C(c3ccc4c(nnn4C)c3C)C(C)(C)C(=O)O)ccc2C)CC(=O)N(C)C1 (stereo not shown) [Example 5, 3-(1,4-Dimethyl-1H-benzo[d][1,2,3]triazol-5-yl)-3-(3-((6-ethyl-4-methyl-3-oxo-1,4-diazepan-1-yl)methyl)-4-methylphenyl)-2,2-dimethylpropanoic acid] | 0.001 to 0.01 |
| Cc1ccc(C(c2ccc3c(nnn3C)c2C)C(C)(C)C(=O)O)cc1CN1CC(=O)N(C)CC(C)(C)C1 (stereo not shown) [Example 7, 3-(1,4-Dimethyl-1H-benzo[d][1,2,3]triazol-5-yl)-2,2-dimethyl-3-(4-methyl-3-((4,6,6-trimethyl-3-oxo-1,4-diazepan-1-yl)methyl)phenyl)propanoic acid] | 0.001 to 0.01 |
